# Patent US20140045890A1, “NOVEL COMPOUNDS” (SYNGENTA PARTICIPATIONS AG, priority 2011, published 2014)
# Values joined by “and” are separate entries in the source; they are usually repeats but may differ in a detail not shown here. Equal values may be shown once.
# Experiments:
# [1] = test system: Phaeosphaeria nodorum (Septoria nodorum); assay: Phaeosphaeria nodorum (Septoria nodorum) / wheat / leaf disc preventative (glume blotch); format: in vivo; conditions: Parastagonospora nodorum, foliar, wheat leaf segments cv. Kanzler, inoculated 2 days after application, assessed 5-7 days after application, read-out: inhibit fungal infestation (percent disease control compared to untreated)
# Pythium ultimum = Pythium ultimum / liquid culture (seedling damping off); format: cell-based; conditions: Globisporangium ultimum, liquid culture in PDB, 24° C., 2-3 days after application, read-out: inhibit fungal infestation (inhibition of growth determined photometrically)
# Phytophthora infestans = assay: whole plant or invertebrate; format: in vivo; conditions: in Solanum lycopersicum, foliar, read-out: inhibit fungal infestation (percent disease control compared to untreated)
# [2] = test system: Blumeria qraminis f. sp. tritici (Erysiphe qraminis f. sp. tritici); assay: Blumeria graminis f. sp. tritici / wheat / leaf disc preventative (powdery mildew on wheat); format: in vivo; conditions: foliar, wheat leaf segments cv. Kanzler, inoculated 1 day after application, assessed 6-8 days after application, read-out: inhibit fungal infestation (percent disease control compared to untreated)
# Plasmopara viticola = Plasmopara viticola / grape / leaf disc preventative; format: in vivo; conditions: foliar, grape vine leaf disks, inoculated 1 day after application, assessed 6-8 days after application, read-out: inhibit fungal infestation (percent disease control compared to untreated)
SMILES,inhibition at 200 ppm [1] [%],inhibition at 200 ppm (Pythium ultimum) [%],inhibition at 200 ppm (Phytophthora infestans) [%],melting point,inhibition at 200 ppm [2] [%],inhibition at 200 ppm (Plasmopara viticola) [%]
CSC(Oc1cc(C)c2ncc(Br)cc2c1)C(=O)NC(C)(C)c1ccccn1 (stereo not drawn) [Compound 9],≥ 80,≥ 80,≥ 80,123 °C,≥ 80,≥ 80
C#Cc1cnc2ccc(OC(SC)C(=O)NC(C)(C)c3ncc(Cl)s3)cc2c1 (stereo not drawn) [Compound 19],,≥ 80,,125 °C,≥ 80,≥ 80
C#Cc1cnc2c(C)cc(OC(SC)C(=O)NC(C)(C)c3ccc(Cl)nc3)cc2c1 (stereo not drawn) [Compound 26],,≥ 80,,120 °C,≥ 80,≥ 80
C#Cc1cnc2ccc(OC(SC)C(=O)NCc3nc(C)cs3)cc2c1 (stereo not drawn) [Compound 30],,≥ 80,≥ 80,115 °C,≥ 80,≥ 80
"C#Cc1cnc2c(C)cc(OC(SC)C(=O)NC(C)(C)c3nocc3Br)cc2c1 (stereo not drawn) [Compound 45, N-[1-(4-bromoisoxazol-3-yl)-1-methyl-ethyl]-2-[(3-ethynyl-8-methyl-6-quinolyl)oxy]-2-methylsulfanyl-acetamide]",≥ 80,≥ 80,,63 to 65 °C,≥ 80,≥ 80
C#Cc1cnc2cc(F)c(OC(SC)C(=O)NC(C)(C)c3cccc(C)n3)cc2c1 (stereo not drawn) [Compound 111],≥ 80,≥ 80,,,≥ 80,
C#Cc1cnc2c(Cl)cc(OC(SC)C(=O)NC(C)(C)c3cc(CC)on3)cc2c1 (stereo not drawn) [Compound 22],,≥ 80,≥ 80,157 °C,≥ 80,≥ 80
C#Cc1cnc2ccc(OC(SC)C(=O)NCc3nc(C)c(C)s3)cc2c1 (stereo not drawn) [Compound 31],,≥ 80,≥ 80,126 °C,≥ 80,
C=Cc1cnc2c(Cl)cc(OC(CC)C(=O)NC(C)(C)c3ccon3)cc2c1 (stereo not drawn) [Compound 136],,≥ 80,,104 °C,≥ 80,
C#Cc1cnc2c(Cl)cc(OC(SC)C(=O)NC(C)(C)c3cccc(C)n3)cc2c1 (stereo not drawn) [Compound 113],≥ 80,≥ 80,,,≥ 80,
C#Cc1cnc2ccc(OC(SC)C(=O)NC(C)(C)c3nocc3Cl)cc2c1 (stereo not drawn) [Compound 51],≥ 80,≥ 80,≥ 80,,≥ 80,≥ 80
C#Cc1cnc2ccc(OC(SC)C(=O)NCc3ccno3)cc2c1 (stereo not drawn) [Compound 4],,≥ 80,≥ 80,115 °C,≥ 80,
CCc1cc(C(C)(C)NC(=O)C(Oc2ccc3ncc(I)cc3c2)SC)no1 (stereo not drawn) [Compound 23],,≥ 80,≥ 80,125 °C,≥ 80,≥ 80
C#Cc1cnc2ccc(OC(SC)C(=O)NC(C)(C)c3nocc3C)cc2c1 (stereo not drawn) [Compound 78],≥ 80,≥ 80,,,≥ 80,≥ 80
C=Cc1cnc2c(F)cc(OC(OC)C(=O)NC(C)(C)c3ccon3)cc2c1 (stereo not drawn) [Compound 138],,,,118 °C,≥ 80,
C#Cc1cnc2ccc(OC(SC)C(=O)NC(C)(C)c3nc(C)cs3)cc2c1 (stereo not drawn) [Compound 28],,≥ 80,≥ 80,97 to 99 °C and 97 °C,≥ 80,≥ 80
CSC(Oc1ccc2ncc(Br)cc2c1)C(=O)NCc1ccno1 (stereo not drawn) [Compound 3],,≥ 80,,140 °C,≥ 80,
C#Cc1cnc2c(C)cc(OC(SC)C(=O)NC(CC)c3ccccn3)cc2c1 (stereo not drawn) [Compound 60],≥ 80,≥ 80,,,≥ 80,
CSC(Oc1ccc2ncc(I)cc2c1)C(=O)NCc1ccccn1 (stereo not drawn) [Compound 6],,≥ 80,,109 °C,≥ 80,
C#Cc1cnc2c(Cl)cc(OC(SC)C(=O)NC(C)(C)c3cc(C)on3)cc2c1 (stereo not drawn) [Compound 68],≥ 80,≥ 80,,,≥ 80,≥ 80
COC(Oc1cc(Cl)c2ncc(Br)cc2c1)C(=O)NC(C)(C)c1nccs1 (stereo not drawn) [Compound 140],,,,111 °C,≥ 80,

SMILES,inhibition at 200 ppm [1] [%],inhibition at 200 ppm (Pythium ultimum) [%],inhibition at 200 ppm (Phytophthora infestans) [%],melting point,inhibition at 200 ppm [2] [%],inhibition at 200 ppm (Plasmopara viticola) [%]
C#Cc1cnc2c(C)cc(OC(SC)C(=O)NC(C)(C)c3cccc(C)n3)cc2c1 (stereo not drawn) [Compound 16],,≥ 80,,123 °C,≥ 80,≥ 80
CSC(Oc1ccc2ncc(Br)cc2c1)C(=O)NCc1ccccn1 (stereo not drawn) [Compound 5],,≥ 80,,104 °C,,
C#Cc1cnc2ccc(OC(SC)C(=O)NC(C)(C)c3cc(Cl)on3)cc2c1 (stereo not drawn) [Compound 73],≥ 80,≥ 80,≥ 80,,≥ 80,≥ 80
C=Cc1cnc2c(F)cc(OC(CC)C(=O)NC(C)(C)c3cc(CC)on3)cc2c1 (stereo not drawn) [Compound 139],,≥ 80,≥ 80,114 °C,,≥ 80
C#Cc1cnc2c(C)cc(OC(SC)C(=O)NCc3nccs3)cc2c1 (stereo not drawn) [Compound 116],≥ 80,≥ 80,,,,
C#Cc1cnc2c(F)cc(OC(SC)C(=O)NC(C)(C)c3cc(CC)on3)cc2c1 (stereo not drawn) [Compound 21],,≥ 80,≥ 80,133 °C,≥ 80,≥ 80
C#Cc1cnc2c(C)cc(OC(SC)C(=O)NC(C)(C)c3nocc3C)cc2c1 (stereo not drawn) [Compound 75],≥ 80,≥ 80,,,,≥ 80
C=Cc1cnc2c(Cl)cc(OC(OC)C(=O)NC(C)(C)c3ccccn3)cc2c1 (stereo not drawn) [Compound 134],,≥ 80,,93 °C,≥ 80,≥ 80
C#Cc1cnc2ccc(OC(SC)C(=O)NC(C)(C)c3cc(C)on3)cc2c1 (stereo not drawn) [Compound 53],≥ 80,≥ 80,≥ 80,,≥ 80,≥ 80
C#Cc1cnc2ccc(OC(SC)C(=O)NC(C)(C)c3ccon3)cc2c1 (stereo not drawn) [Compound 44],≥ 80,≥ 80,≥ 80,,≥ 80,≥ 80
"C=Cc1cnc2ccc(OC(SC)C(=O)NC(C)(C)c3ccccn3)cc2c1 (stereo not drawn) [Compound 133, N-[1-methyl-1-(2-pyridyl)ethyl]-2-methylsulfanyl-2-[(3-vinyl-6-quinolyl)oxy]acetamide]",,,,95 to 97 °C,,
C#Cc1cnc2ccc(OC(SC)C(=O)NC(C)(C)c3ccc(Cl)nc3)cc2c1 (stereo not drawn) [Compound 27],,≥ 80,,114 °C,,
C#Cc1cnc2ccc(OC(SC)C(=O)NC(C)(C)c3ccccn3)cc2c1 (stereo not drawn) [Compound 33],≥ 80,≥ 80,≥ 80,,≥ 80,≥ 80
C#Cc1cnc2c(Cl)cc(OC(SC)C(=O)NCc3nccs3)cc2c1 (stereo not drawn) [Compound 117],≥ 80,≥ 80,,,≥ 80,
CSC(Oc1cc(Cl)c2ncc(Br)cc2c1)C(=O)NCc1ccno1 (stereo not drawn) [Compound 1],,,,143 °C,≥ 80,
C=Cc1cnc2c(F)cc(OC(CC)C(=O)NC(C)(C)c3nccs3)cc2c1 (stereo not drawn) [Compound 137],,≥ 80,≥ 80,102 °C,≥ 80,≥ 80
C#Cc1cnc2ccc(OC(SC)C(=O)NCc3ccccn3)cc2c1 (stereo not drawn) [Compound 25],,≥ 80,≥ 80,133 °C,≥ 80,
"C#Cc1cnc2c(C)cc(OC(SC)C(=O)NC(C)(C)c3ccon3)cc2c1 (stereo not drawn) [Compound 39, 2-[(3-ethynyl-8-methyl-6-quinolyl)oxy]-N-(1-isoxazol-3-yl-1-methyl-ethyl)-2-methylsulfanyl-acetamide]",≥ 80,≥ 80,≥ 80,,≥ 80,≥ 80
CSC(Oc1ccc2ncc(I)cc2c1)C(=O)NCc1ccno1 (stereo not drawn) [Compound 2],,≥ 80,,153 °C,≥ 80,
C#Cc1cnc2c(C)cc(OC(SC)C(=O)NC(C)(C)c3cc(C)ccn3)cc2c1 (stereo not drawn) [Compound 17],,≥ 80,,82 °C,≥ 80,≥ 80
C#Cc1cnc2ccc(OC(SC)C(=O)NCc3nccs3)cc2c1 (stereo not drawn) [Compound 29],,≥ 80,,178 °C,≥ 80,≥ 80
